Assay results taken from US20130225508A1, “PEPTIDE CAPABLE OF BINDING TO IMMUNOGLOBULIN” (priority 2010, published 2013).
One block for each molecule: values may come before it. No end group written: not given here.

Columns and labels:
Arthus reaction = assay: Type III allergic (Arthus) reaction-induced rat model, dye leakage; assay type: in vivo, Slc:Wistar rats; details: 50 mg/kg intraperitoneal; mean±SD
Method: Using forty-two 7-week-old male Slc:Wistar rats, examinations were made on test substance VII-2, with each of intraperitoneal administration and intravenous administration into tail vain. Acclimation was carried out by giving normal solid chow CRF-1 for a period of 6 days or longer. On the day prior to administration, the back of each animal was shaved. On the day of administration, a mixed solution of egg-white Ovalbumin (MP Biomedicals) (hereinafter referred to as “OVA”) and Evans blue dye was administered into the tail vein. […] The amount of dye leakage was quantified by measuring absorbance for the Evans blue dye with a spectrophotometer and using a calibration curve. […]
Several cuttings were made in the skin strips that had been punched out with a punch. […] The amount of dye leakage was calculated from a calibration curve of known amounts of the dye.
The mean value (mean)±standard deviation (SD) for each of the groups was calculated with respect to body-weight measurements and amounts of dye leakage. For amounts of dye leakage, the value for each of the animals was determined by subtracting the mean of the values obtained for the two sites of PBS administration from the mean of the values obtained for the two sites of administration of the anti-OVA solution. […]

[1] = system: adjuvant-induced arthritis; assay: Adjuvant arthritis rat model; assay type: in vivo, Lewis/CrlCrlj rats; design: key to Redness scores (left hind-limb) / Redness scores (right hind-limb): 0 = no redness, 4 = severe redness; key to Scores of swelling in the instep (left hind-limb) / Scores of swelling in the instep (right hind-limb): 0 = no swelling, 4 = severe swelling; key to Scores of swelling in knuckle joints (left hind-limb) / Scores of swelling in knuckle joints (right hind-limb): 0 = no swelling, 4 = swelling of all the digits; details: 10 mg/kg oral from day 10
Source text: Male Lewis/CrlCrlj (SPF) rats were used to investigate the arthritis suppressing effect of a peptide of the present invention on adjuvant-induced arthritis. Forty-five rats were purchased from Charles River Laboratories Japan, Inc., and fed normal chow and allowed to acclimate for 7 days before used (the range of body weights was from 193.3 to 218.3 g at the beginning of use).
In an agate motor, dead tubercle bacilli (Mycobacterium butyricum; Lot No. 0260570, Difco) were pulverized. Then, liquid paraffin was added in small amounts to spread the pulverized bacilli well, so as to allow them to be emulsified at 1.0 mg/mL. The resultant emulsion was used after verification to ensure that the pulverized bacilli had been allowed to be finely emulsified, using an NM MICRONIZER (Nippon Seiki Co., Ltd.).
A right hind-limb of the respective rats was exposed, and 100 μL of the emulsion was intradermally injected once into a footpad of the right hind-limb using a 25G-needle attached syringe, to cause arthritis (day 0).
Each of the groups was comprised of 5 animals.
Arthritis was evaluated only for the hind-limbs, based on the criteria described below:
Score 0: no swelling Score 1: swelling of not more than two digits Score 2: swelling of three digits Score 3: swelling of four digits Score 4: swelling of all the digits
Score 0: no swelling Score 1: mild swelling Score 2: modest swelling Score 3: rather severe swelling Score 4: severe swelling
Score 0: no redness Score 1: mild redness Score 2: modest redness Score 3: rather severe redness Score 4: severe redness (iii) Measurement of Foot Volumes of Left And Right Hind-Limbs
Measurement was performed using a plethysmometer (UNICOM TK105). The increasing rate foot volume (percentage of paw swelling, paw swelling %) was calculated by the following formula:
Percent paw swelling (%)=[(Vt−Vo)/Vo]×100
In addition, in these examinations, the percent change of edema relative to day 10 post-adjuvant was calculated, in order to assess the effect of treatment with the test substances.
Data are expressed by mean±standard error. Since the uniformity of variance was not verified in testing between the negative and the positive control groups, testing for significant difference was performed by Aspin-Welch t-test. Since the uniformity of variance was not verified in testing for significant differences of the respective test-substance administered groups relative to the positive control group, assessment was performed by Dunnett's multiple comparison test after Kruskal-Wallis testing, using non-parametric procedures. Differences were considered to be statistically significant at p values of less than 0.05.

IL-1β in plasma = IL-1β in plasma of adjuvant arthritis rats (ELISA); assay type: in vivo, rat; details: day 21 post-adjuvant; 10 mg/kg oral from day 10
Method: (§1) TNF-α and IL-1β in plasma were measured in a double-point method using the TNF-α ELISA kit (Lbis® TNF-α-rat) and the IL-1β ELISA kit (Quantikine® Rat IL-1β/IL-1F2).
(§2) On day 21 post-adjuvant, the animals were subjected to autopsy, and plasma was prepared to measure IL-1β and TIN-α concentrations in plasma. In all the groups for which measurements were made, the concentration of TNF-α was below the detection limit (8 pg/mL).

TNF-α in plasma = TNF-α in plasma of adjuvant arthritis rats (ELISA); assay type: in vivo, rat; details: day 21 post-adjuvant; 10 mg/kg oral from day 10
Method: as §1, §2

[2] = Evaluation of solubility of peptides in water (PBS or physiological saline); assay type: physicochemical; details: solvent PBS or physiological saline
Method: Water solubility was evaluated for peptides in which various kinds of hydrophilic amino acid were substituted for the 4th and 5th amino acids which were verified in (1) to be allowed to be mutated. The peptides listed in Table 2 were synthesized by GL Biochem (Shanghai). Among the peptides listed in Table 2, peptides SP1 to SP7 are peptides in which various kinds of hydrophilic amino acid were substituted for the 4th and 5th amino acids.
In Table 3, the circle symbol is assigned to a peptide which was dissolved in a solvent (PBS or physiological saline) at a concentration of 10 mg/ml or higher, and the cross symbol is assigned to a peptide which was not dissolved at a concentration of 1 mg/ml. […] In the subsequent experiments, the peptides in which the 4th and 5th amino acids were substituted by hydrophilic amino acids were used.

Molecule: C[C@]12CCC(=O)C=C1CC[C@@H]1[C@@H]2[C@@H](O)C[C@@]2(C)[C@H]1CC[C@]2(O)C(=O)CO [Hydrocortisone]
amount of dye leakage (Evans blue) (Arthus reaction): 5.665±0.674 μg/animal

Molecule: Cc1oncc1C(=O)Nc1ccc(C(F)(F)F)cc1 [Reflumide]
Percent increase in foot volume relative to pre-adjuvant (left hind-limb) ([1]; Day 0 post-adjuvant): 0.00 ± 0.0%
Percent increase in foot volume relative to pre-adjuvant (right hind-limb) ([1]; Day 0 post-adjuvant): 0.00 ± 0.0%
Redness scores (left hind-limb) ([1]; Day 0 post-adjuvant): 0.0 ± 0.0
Redness scores (right hind-limb) ([1]; Day 0 post-adjuvant): 0.0 ± 0.0
Scores of swelling in knuckle joints (left hind-limb) ([1]; Day 0 post-adjuvant): 0.0 ± 0.0
Scores of swelling in knuckle joints (right hind-limb) ([1]; Day 0 post-adjuvant): 0.0 ± 0.0
Scores of swelling in the instep (left hind-limb) ([1]; Day 0 post-adjuvant): 0.0 ± 0.0
Scores of swelling in the instep (right hind-limb) ([1]; Day 0 post-adjuvant): 0.0 ± 0.0
Total scores (left hind-limb) ([1]; Day 0 post-adjuvant): 0.0 ± 0.0
Total scores (right hind-limb) ([1]; Day 0 post-adjuvant): 0.0 ± 0.0
Percent increase in foot volume relative to pre-adjuvant (left hind-limb) ([1]; Day 3 post-adjuvant): 13.28 ± 0.4%
Percent increase in foot volume relative to pre-adjuvant (right hind-limb) ([1]; Day 3 post-adjuvant): 13.33 ± 0.4%
Redness scores (left hind-limb) ([1]; Day 3 post-adjuvant): 0.0 ± 0.0
Redness scores (right hind-limb) ([1]; Day 3 post-adjuvant): 0.0 ± 0.0
Scores of swelling in knuckle joints (left hind-limb) ([1]; Day 3 post-adjuvant): 0.0 ± 0.0
Scores of swelling in knuckle joints (right hind-limb) ([1]; Day 3 post-adjuvant): 0.0 ± 0.0
Scores of swelling in the instep (left hind-limb) ([1]; Day 3 post-adjuvant): 0.0 ± 0.0
Scores of swelling in the instep (right hind-limb) ([1]; Day 3 post-adjuvant): 0.0 ± 0.0
Total scores (left hind-limb) ([1]; Day 3 post-adjuvant): 0.0 ± 0.0
Total scores (right hind-limb) ([1]; Day 3 post-adjuvant): 0.0 ± 0.0
Percent increase in foot volume relative to pre-adjuvant (left hind-limb) ([1]; Day 7 post-adjuvant): 18.56 ± 3.3%
Percent increase in foot volume relative to pre-adjuvant (right hind-limb) ([1]; Day 7 post-adjuvant): 26.75 ± 1.4%
Redness scores (left hind-limb) ([1]; Day 7 post-adjuvant): 0.4 ± 0.2
Redness scores (right hind-limb) ([1]; Day 7 post-adjuvant): 0.6 ± 0.2
Scores of swelling in knuckle joints (left hind-limb) ([1]; Day 7 post-adjuvant): 0.4 ± 0.2
Scores of swelling in knuckle joints (right hind-limb) ([1]; Day 7 post-adjuvant): 0.2 ± 0.2
Scores of swelling in the instep (left hind-limb) ([1]; Day 7 post-adjuvant): 0.4 ± 0.2
Scores of swelling in the instep (right hind-limb) ([1]; Day 7 post-adjuvant): 1.0 ± 0.0
Total scores (left hind-limb) ([1]; Day 7 post-adjuvant): 1.2 ± 1.6
Total scores (right hind-limb) ([1]; Day 7 post-adjuvant): 1.8 ± 0.5
Percent increase in foot volume relative to pre-adjuvant (left hind-limb) ([1]; Day 10 post-adjuvant): 22.94 ± 3.6%
Percent increase in foot volume relative to pre-adjuvant (right hind-limb) ([1]; Day 10 post-adjuvant): 49.75 ± 15.8%
Redness scores (left hind-limb) ([1]; Day 10 post-adjuvant): 0.8 ± 0.4
Redness scores (right hind-limb) ([1]; Day 10 post-adjuvant): 1.2 ± 0.2
Scores of swelling in knuckle joints (left hind-limb) ([1]; Day 10 post-adjuvant): 1.4 ± 0.4
Scores of swelling in knuckle joints (right hind-limb) ([1]; Day 10 post-adjuvant): 1.6 ± 0.6
Scores of swelling in the instep (left hind-limb) ([1]; Day 10 post-adjuvant): 0.6 ± 0.4
Scores of swelling in the instep (right hind-limb) ([1]; Day 10 post-adjuvant): 1.4 ± 0.4
Total scores (left hind-limb) ([1]; Day 10 post-adjuvant): 2.8 ± 1.4
Total scores (right hind-limb) ([1]; Day 10 post-adjuvant): 4.2 ± 1.5
Percent increase in foot volume relative to day 10 post-adjuvant (left hind-limb) ([1]; Day 14 post-adjuvant): −2.2 ± 1.6%
Percent increase in foot volume relative to day 10 post-adjuvant (right hind-limb) ([1]; Day 14 post-adjuvant): −1.3 ± 2.9^ %
Percent increase in foot volume relative to pre-adjuvant (left hind-limb) ([1]; Day 14 post-adjuvant): 20.13 ± 3.2%
Percent increase in foot volume relative to pre-adjuvant (right hind-limb) ([1]; Day 14 post-adjuvant): 46.22 ± 10.7%
Redness scores (left hind-limb) ([1]; Day 14 post-adjuvant): 0.4 ± 0.2
Redness scores (right hind-limb) ([1]; Day 14 post-adjuvant): 1.2 ± 0.2
Scores of swelling in knuckle joints (left hind-limb) ([1]; Day 14 post-adjuvant): 0.6 ± 0.4
Scores of swelling in knuckle joints (right hind-limb) ([1]; Day 14 post-adjuvant): 1.4 ± 0.4
Scores of swelling in the instep (left hind-limb) ([1]; Day 14 post-adjuvant): 0.2 ± 0.2
Scores of swelling in the instep (right hind-limb) ([1]; Day 14 post-adjuvant): 1.2 ± 0.2
Total scores (left hind-limb) ([1]; Day 14 post-adjuvant): 1.2 ± 1.0
Total scores (right hind-limb) ([1]; Day 14 post-adjuvant): 3.8 ± 1.0
Percent increase in foot volume relative to day 10 post-adjuvant (left hind-limb) ([1]; Day 17 post-adjuvant): 1.2 ± 6.3%
Percent increase in foot volume relative to day 10 post-adjuvant (right hind-limb) ([1]; Day 17 post-adjuvant): −3.4 ± 2.8%
Percent increase in foot volume relative to pre-adjuvant (left hind-limb) ([1]; Day 17 post-adjuvant): 24.18 ± 7.7%
Percent increase in foot volume relative to pre-adjuvant (right hind-limb) ([1]; Day 17 post-adjuvant): 43.17 ± 11.2%
Redness scores (left hind-limb) ([1]; Day 17 post-adjuvant): 0.6 ± 0.6
Redness scores (right hind-limb) ([1]; Day 17 post-adjuvant): 0.8 ± 0.2
Scores of swelling in knuckle joints (left hind-limb) ([1]; Day 17 post-adjuvant): 0.6 ± 0.4
Scores of swelling in knuckle joints (right hind-limb) ([1]; Day 17 post-adjuvant): 0.0 ± 0.0
Scores of swelling in the instep (left hind-limb) ([1]; Day 17 post-adjuvant): 0.2 ± 0.2
Scores of swelling in the instep (right hind-limb) ([1]; Day 17 post-adjuvant): 1.2 ± 0.2
Total scores (left hind-limb) ([1]; Day 17 post-adjuvant): 1.4 ± 1.5
Total scores (right hind-limb) ([1]; Day 17 post-adjuvant): 2.0 ± 0.0
Percent increase in foot volume relative to day 10 post-adjuvant (left hind-limb) ([1]; Day 21 post-adjuvant): −1.4 ± 6.1%
Percent increase in foot volume relative to day 10 post-adjuvant (right hind-limb) ([1]; Day 21 post-adjuvant): −5.9 ± 4.1%
Percent increase in foot volume relative to pre-adjuvant (left hind-limb) ([1]; Day 21 post-adjuvant): 20.93 ± 7.3%
Percent increase in foot volume relative to pre-adjuvant (right hind-limb) ([1]; Day 21 post-adjuvant): 38.93 ± 9.5%
Redness scores (left hind-limb) ([1]; Day 21 post-adjuvant): 0.6 ± 0.6
Redness scores (right hind-limb) ([1]; Day 21 post-adjuvant): 1.4 ± 0.4
Scores of swelling in knuckle joints (left hind-limb) ([1]; Day 21 post-adjuvant): 0.4 ± 0.4
Scores of swelling in knuckle joints (right hind-limb) ([1]; Day 21 post-adjuvant): 0.6 ± 0.6
Scores of swelling in the instep (left hind-limb) ([1]; Day 21 post-adjuvant): 0.4 ± 0.4
Scores of swelling in the instep (right hind-limb) ([1]; Day 21 post-adjuvant): 1.4 ± 0.4
Total scores (left hind-limb) ([1]; Day 21 post-adjuvant): 1.4 ± 1.8
Total scores (right hind-limb) ([1]; Day 21 post-adjuvant): 3.4 ± 1.8
Concentrations of IL-1β in plasma (IL-1β in plasma): 13.0 ± 2.5 pg/mL
Concentrations of TNF-α in plasma (TNF-α in plasma): N.D (N.D.: below detection limit)

solubility [2]: ≥ 10000 µg/mL
Molecule: PGLDHF [SP3, PGLDHF]

solubility [2]: ≥ 10000 µg/mL
Molecule: PGLDKF [SP1, PGLDKF]

solubility [2]: ≥ 10000 µg/mL
Molecule: PGLDRF [SP2, PGLDRF]

solubility [2]: ≥ 10000 µg/mL
Molecule: PGLEHF [SP6, PGLEHF]

solubility [2]: ≥ 10000 µg/mL
Molecule: PGLEKF [SP4, PGLEKF]

solubility [2]: ≥ 10000 µg/mL
Molecule: PGLERF [SP5, PGLERF]

solubility [2]: ≥ 10000 µg/mL
Molecule: PGLSSF [SP7, PGLSSF]

solubility [2]: < 1000 µg/mL
Molecule: PGLYYF [R1, PGLYYF]
